Test results as given in ChEMBL document CHEMBL1201862, “PubChem BioAssay data set” (2004).
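In this assay, cells in 96-well plates receive the compound at five concentrations for 48 hours. Endpoints are linearly interpolated between the surrounding concentrations. GI50: concentration for 50% inhibition of growth.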 The source made the active and inactive calls. Rule as the data show it: active = GI50 up to about 1.1 µM and inactive = higher.

Assays:
Assay in all cases: NCI tumour cell line growth inhibition, 48 h
M19-MEL = tested on: M19-MEL
NCI-H460 = tested on: NCI-H460
NCI-H522 = tested on: NCI-H522
HCT-15 = tested on: HCT-15
U-251 = tested on: U-251
KM12 = tested on: KM12
SK-MEL-5 = tested on: SK-MEL-5
NCI-H226 = tested on: NCI-H226
SF-295 = tested on: SF-295
K562 = tested on: K562
ACHN = tested on: ACHN
IGROV-1 = tested on: IGROV-1
UO-31 = tested on: UO-31
SW-620 = tested on: SW-620
TK-10 = tested on: TK-10
NCI-H23 = tested on: NCI-H23
DU-145 = tested on: DU-145
NCI/ADR-RES = tested on: NCI/ADR-RES
SR = tested on: SR
BT-549 = tested on: BT-549

Measured: GI50

C=CCSC[C@H](NC(=O)COc1ccccc1)C(=O)NC(C(=O)OCc1ccc([N+](=O)[O-])cc1)=C(C)C
inactive: M19-MEL 32.1 µM | NCI-H460 49.5 µM | NCI-H522 26.4 µM | U-251 76.6 µM | KM12 73.5 µM | SK-MEL-5 27.6 µM | NCI-H226 28.6 µM | SF-295 50.8 µM | K562 44.5 µM | ACHN 54 µM | IGROV-1 > 100 µM | UO-31 33.6 µM
65.5 µM: HCT-15

C[N+](C)(C)CC1CCCCC1=O (configuration not stated)
14.1 µM: HCT-15
inactive: M19-MEL 18.5 µM | NCI-H460 55.3 µM | NCI-H522 19.1 µM | SW-620 8.49 µM | U-251 > 100 µM | KM12 58.2 µM | SK-MEL-5 25.2 µM | NCI-H226 > 100 µM | SF-295 > 100 µM | K562 8.63 µM | ACHN 16.4 µM | TK-10 37.1 µM | IGROV-1 > 100 µM | UO-31 > 100 µM | NCI-H23 22.5 µM

CC(=O)C1=C(O)C2C3c4c[nH]c5cccc(c45)CC3C(C)(C)N2C1=O (configuration not stated)
34.6 µM: HCT-15
inactive: M19-MEL > 100 µM | NCI-H460 10.8 µM | NCI-H522 11.9 µM | SW-620 30.3 µM | U-251 17.1 µM | KM12 40.5 µM | SK-MEL-5 11.7 µM | NCI-H226 17.3 µM | SF-295 24.3 µM | K562 45.7 µM | ACHN 28.2 µM | TK-10 46.5 µM | IGROV-1 > 100 µM | UO-31 25.6 µM | NCI-H23 11.6 µM

CCC(C)(O)c1cn(-c2ccc(S(=O)(=O)O)cc2)nn1 (configuration not stated)
> 100 µM: HCT-15
inactive: M19-MEL > 100 µM | NCI-H460 > 100 µM | NCI-H522 > 100 µM | SW-620 > 100 µM | U-251 > 100 µM | KM12 > 100 µM | SK-MEL-5 > 100 µM | NCI-H226 > 100 µM | SF-295 > 100 µM | K562 > 100 µM | ACHN > 100 µM | TK-10 > 100 µM | IGROV-1 > 100 µM | UO-31 > 100 µM | NCI-H23 > 100 µM

O=C(/C=C/c1ccccc1)CC(=O)CCC(=O)Nc1ccc(Cl)cc1
inactive: M19-MEL 71 µM | NCI-H460 55.6 µM | NCI-H522 > 100 µM | SW-620 > 100 µM | U-251 > 100 µM | KM12 44.4 µM | SK-MEL-5 > 100 µM | NCI-H226 > 100 µM | SF-295 > 100 µM | K562 5.58 µM | ACHN 23.6 µM | TK-10 > 100 µM | IGROV-1 86.1 µM | UO-31 94 µM | NCI-H23 > 100 µM
> 100 µM: HCT-15

COc1ccc2c(c1)Cc1c-2[nH]c2cc3c(cc2c1=O)OCO3
9.91 µM: HCT-15
inactive: M19-MEL 15.7 µM | NCI-H460 10.3 µM | NCI-H522 10.8 µM | SW-620 27.5 µM | U-251 9.89 µM | KM12 9.48 µM | SK-MEL-5 6.21 µM | NCI-H226 29.9 µM | SF-295 16.3 µM | K562 7.94 µM | ACHN 7.94 µM | TK-10 9.31 µM | IGROV-1 16.9 µM | UO-31 15.8 µM | NCI-H23 16.3 µM

c1ccc(OC2=NC3=S(S2)SC(Oc2ccccc2)=N3)cc1
18.9 µM: HCT-15
inactive: M19-MEL 17.8 µM | NCI-H460 30.2 µM | NCI-H522 16.4 µM | SW-620 15 µM | U-251 11.2 µM | KM12 16.9 µM | SK-MEL-5 18 µM | NCI-H226 24.3 µM | SF-295 17 µM | K562 16.5 µM | ACHN 19.2 µM | TK-10 17.8 µM | IGROV-1 20.8 µM | UO-31 18.1 µM | NCI-H23 21.3 µM

Cn1c(=O)c2c(nc(NCCCCl)n2CC(=O)O)n(C)c1=O
active: SR < 0.01 µM
> 100 µM: HCT-15
inactive: NCI-H460 > 100 µM | NCI-H522 > 100 µM | DU-145 > 100 µM | SW-620 > 100 µM | U-251 > 100 µM | KM12 > 100 µM | SK-MEL-5 > 100 µM | NCI-H226 > 100 µM | SF-295 > 100 µM | K562 > 100 µM | ACHN > 100 µM | TK-10 > 100 µM | IGROV-1 > 100 µM | NCI/ADR-RES > 100 µM | UO-31 > 100 µM | NCI-H23 > 100 µM | BT-549 > 100 µM

CC(=O)Nc1ccc(C(=O)NN2C(=O)C(Cl)C2c2ccccc2)cc1 (configuration not stated)
inactive: M19-MEL > 100 µM | NCI-H460 > 100 µM | NCI-H522 > 100 µM | SW-620 > 100 µM | U-251 > 100 µM | SK-MEL-5 > 100 µM | NCI-H226 > 100 µM | SF-295 > 100 µM | K562 > 100 µM | ACHN > 100 µM | TK-10 > 100 µM | IGROV-1 > 100 µM | UO-31 > 100 µM | NCI-H23 > 100 µM

CO[C@H](C)[C@](O)(C(=O)OCC1=CCN2CC[C@@H](O)[C@H]12)C(C)C
55.2 µM: HCT-15
inactive: NCI-H460 28.5 µM | NCI-H522 > 100 µM | DU-145 > 100 µM | SW-620 > 100 µM | U-251 > 100 µM | KM12 > 100 µM | SK-MEL-5 > 100 µM | NCI-H226 > 100 µM | SF-295 > 100 µM | K562 > 100 µM | ACHN 73.3 µM | TK-10 > 100 µM | IGROV-1 > 100 µM | NCI/ADR-RES > 100 µM | UO-31 > 100 µM | NCI-H23 > 100 µM | SR > 100 µM | BT-549 > 100 µM

CCOC(=O)/C(C#N)=C/c1coc2cc(C)cc(C)c2c1=O
inactive: NCI-H460 > 100 µM | NCI-H522 > 100 µM | DU-145 > 100 µM | SW-620 > 100 µM | U-251 > 100 µM | KM12 > 100 µM | SK-MEL-5 > 100 µM | NCI-H226 > 100 µM | SF-295 91.6 µM | K562 > 100 µM | ACHN > 100 µM | TK-10 > 100 µM | IGROV-1 > 100 µM | NCI/ADR-RES > 100 µM | UO-31 59 µM | NCI-H23 > 100 µM | SR > 100 µM | BT-549 > 100 µM
> 100 µM: HCT-15

CN1CCN(c2nc(N)c(Br)c(Cl)n2)CC1
inactive: M19-MEL > 100 µM | NCI-H460 > 100 µM | NCI-H522 > 100 µM | SW-620 > 100 µM | KM12 > 100 µM | SK-MEL-5 > 100 µM | SF-295 > 100 µM | K562 > 100 µM | ACHN > 100 µM | TK-10 > 100 µM | IGROV-1 > 100 µM | UO-31 > 100 µM | NCI-H23 > 100 µM
> 100 µM: HCT-15

O=c1c2ccccc2nc(Nc2cccc(Cl)c2)n1/N=C/C=C/c1ccccc1
> 100 µM: HCT-15
inactive: NCI-H460 48.2 µM | NCI-H522 50.5 µM | DU-145 > 100 µM | SW-620 51.5 µM | U-251 28.8 µM | KM12 > 100 µM | SK-MEL-5 89.3 µM | NCI-H226 99.5 µM | SF-295 60 µM | K562 > 100 µM | ACHN 50.7 µM | TK-10 > 100 µM | IGROV-1 > 100 µM | NCI/ADR-RES 63.5 µM | UO-31 > 100 µM | NCI-H23 71.9 µM | SR 29.6 µM | BT-549 > 100 µM

C[C@@]12[Se]c3ccccc3[C@]1(C)[Se]c1ccccc12
inactive: M19-MEL 5.68 µM | NCI-H522 4.05 µM | SW-620 3.27 µM | U-251 54.6 µM | KM12 6.95 µM | SK-MEL-5 4.21 µM | NCI-H226 > 100 µM | SF-295 38.7 µM | K562 4.17 µM | ACHN > 100 µM | TK-10 > 100 µM | NCI-H23 > 100 µM

O=C(O)C(O)C(O)C(O)C(=O)CO (configuration not stated)
> 100 µM: HCT-15
inactive: NCI-H460 > 100 µM | NCI-H522 > 100 µM | DU-145 > 100 µM | SW-620 > 100 µM | U-251 > 100 µM | KM12 > 100 µM | SK-MEL-5 > 100 µM | NCI-H226 > 100 µM | SF-295 > 100 µM | K562 > 100 µM | ACHN > 100 µM | TK-10 > 100 µM | IGROV-1 > 100 µM | NCI/ADR-RES > 100 µM | UO-31 > 100 µM | NCI-H23 > 100 µM | SR > 100 µM | BT-549 > 100 µM

Cc1cccc(/C=N/NC(=S)NCc2ccccn2)n1
inactive: NCI-H460 15.9 µM | NCI-H522 34.3 µM | DU-145 15.1 µM | SW-620 22.1 µM | U-251 20.7 µM | KM12 40.3 µM | SK-MEL-5 17.7 µM | NCI-H226 29.3 µM | SF-295 27.5 µM | K562 36.1 µM | ACHN 10.4 µM | TK-10 99.3 µM | IGROV-1 24 µM | NCI/ADR-RES 25.2 µM | UO-31 14.8 µM | NCI-H23 40.8 µM | SR 38.9 µM | BT-549 58.2 µM
23.7 µM: HCT-15

CC(C)CC(=O)NC(C(=O)NC(C(=O)NC(CC(C)C)C(O)CC(=O)NC(C)C(=O)NC(CC(C)C)C(O)CC(=O)O)C(C)C)C(C)C (configuration not stated)
> 100 µM: HCT-15
inactive: NCI-H460 > 100 µM | NCI-H522 > 100 µM | DU-145 > 100 µM | SW-620 > 100 µM | U-251 > 100 µM | KM12 > 100 µM | SK-MEL-5 > 100 µM | SF-295 > 100 µM | K562 > 100 µM | ACHN > 100 µM | TK-10 > 100 µM | IGROV-1 > 100 µM | NCI/ADR-RES > 100 µM | UO-31 > 100 µM | NCI-H23 > 100 µM | SR > 100 µM | BT-549 22.1 µM
active: NCI-H226 0.436 µM
